Source: publication PMC4726752, “Coenzyme Q Biosynthesis: Evidence for a Substrate Access Channel in the FAD-Dependent Monooxygenase Coq6” (PLoS Computational Biology, 2016)

B1: Coq6p-MBP fusion protein (enzyme, S. cerevisiae, UniProt P53318 18-479, looked up)
chain: ATAKSSAPKLTDVLIVGGGPAGLTLAASIKNSPQLKDLKTTLVDMVDLKDKLSDFYNSPPDYFTNRIVSVTPRSIHFLENNAGATLMHDRIQSYDGLYVTDGCSKATLDLARDSMLCMIEIINIQASLYNRISQYDSKKDSIDIIDNTKVVNIKHSDPNDPLSWPLVTLSNGEVYKTRLLVGADGFNSPTRRFSQIPSRGWMYNAYGVVASMKLEYPPFKLRGWQRFLPTGPIAHLPMPENNATLVWSSSERLSRLLLSLPPESFTALINAAFVLEDADMNYYYRTLEDGSMDTDKLIEDIKFRTEEIYATLKDESDIDEIYPPRVVSIIDKTRARFPLKLTHADRYCTDRVALVGDAAHTTHPLAGQGLNMGQTDVHGLVYALEKAMERGLDIGSSLSLEPFWAERYPSNNVLLGMADKLFKLYHTNFPPVVALRTFGLNLTNKIGPVKNMIIDTLGGNEK
notes: Coq6p, FAD-dependent monooxygenase of ubiquinone biosynthesis, S. cerevisiae, UniProt P53318; coq6 gene optimised for E. coli and cloned in pMAL-c2X between BamHI and EcoRI downstream of malE; Printed mass of the fusion is 96.3 kDa with an MBP tag of 45 kDa, which would fit the whole 479-residue Coq6p (my surmise); source: E. coli BL21 (DE3) co-transformed with pMALc2x-Coq6p and pGro7 …

Key:
Coq6p-MBP (Coq6p) = target: T1, Coq6p-MBP (Coq6p) (Saccharomyces cerevisiae, UniProt P53318); conditions: co-purified cofactor; tetrameric Coq6p-MBP, purified in Tris-HCl pH 7.5
T1 construct: gene COQ6

[1] = target: the molecule itself; assay: SEC; gel filtration on Superdex 200 10/300 GL calibrated with standards of known molecular mass (Bio-Rad); purified Coq6p-MBP

T1 sequence (P53318 whole entry): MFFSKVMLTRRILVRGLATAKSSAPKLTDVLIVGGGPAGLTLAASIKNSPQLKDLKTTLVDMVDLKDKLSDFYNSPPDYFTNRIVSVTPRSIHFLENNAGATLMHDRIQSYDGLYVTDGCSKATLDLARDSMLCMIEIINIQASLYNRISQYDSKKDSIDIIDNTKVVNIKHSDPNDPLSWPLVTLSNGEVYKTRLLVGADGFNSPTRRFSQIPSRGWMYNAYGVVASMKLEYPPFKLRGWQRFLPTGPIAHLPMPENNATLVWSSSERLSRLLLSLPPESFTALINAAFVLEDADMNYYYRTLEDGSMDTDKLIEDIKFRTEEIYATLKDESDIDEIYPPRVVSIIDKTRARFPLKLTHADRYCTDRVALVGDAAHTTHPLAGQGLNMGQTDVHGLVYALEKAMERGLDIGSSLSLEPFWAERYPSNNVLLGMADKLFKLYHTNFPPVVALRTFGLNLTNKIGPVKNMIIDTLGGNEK

Row | Molecule | FAD occupancy per monomer (Coq6p-MBP (Coq6p)) | stoichiometry N [1]
1 | Cc1cc2nc3c(=O)[nH]c(=O)nc-3n(C[C@H](O)[C@H](O)[C@H](O)COP(=O)(O)OP(=O)(O)OC[C@H]3O[C@@H](n4cnc5c(N)ncnc54)[C@H](O)[C@@H]3O)c2cc1C [FAD] | ~ 85% | –
2 | B1 | – | 4
